{
  "source": "patent US20250380701A1",
  "about": "“HERBICIDAL COMBINATIONS AND A METHOD FOR CONTROLLING UNDESIRED VEGETATION” (UPL Mauritius Limited, priority 2022, published 2025)",
  "tested_on": "weedy Glycine max",
  "assay": "Post-emergence herbicidal activity trial, efficacy on weedy Glycine max (Colby evaluation)",
  "format": "in vivo",
  "protocol": "The following products were used for testing the weed control efficacy of present herbicidal combinations.\nMethodology: Trials were carried out to evaluate the efficacy of the combination of L-glufosinate ammonium (glufosinate-P-ammonium) and the additional herbicides on weedy Glycine max.\nThe soil used was sandy clay loam-sand: 68.0%; silt: 8.0%; clay: 24.0%.\nAll treatments were in 3 replications per treatment with a spray volume of about 150 L/ha.\nThe expected efficacy of a combination of L-glufosinate and the other herbicides was calculated using the well-established Colby method. Any difference between the observed and “expected” efficacy could be attributed to synergy between the two compounds.\nIn the Colby method, the expected (or predicted) response of a combination of herbicides is calculated by taking the product of the observed response for each individual component of the combination when applied alone, divided by 100, and subtracting this value from the sum of the observed response for each component when applied alone. An unexpected enhancement in efficacy of the combination is then determined by comparing the observed response of the combination to the expected (or predicted) response as calculated from the observed response of each individual component alone. If the observed response of the combination is greater than the expected (or predicted) response, or stated conversely, if the difference between the observed and expected response is greater than zero, then the combination is said to be synergistic or unexpectedly effective (Colby, S. R., Weeds, 1967(15), p. 20-22). The Colby method requires only a single dose of each herbicide applied alone and the mixture of both doses. The formula used to calculate the expected efficacy (EE) which was compared with the observed efficacy (OE) to determine the efficacy of the present disclosure is explained hereinbelow:\nThe expected efficacy for a combination of two active ingredients is as follows:\nwherein, • A=Observed efficacy of active ingredient A at the same concentration as used in the mixture. • B=Observed efficacy of the active ingredient B at the same concentration as used in the mixture. • C=Observed efficacy of the active ingredient C at the same concentration as used in the mixture.\nExperiments were conducted to assess the efficacy of the herbicidal combination comprising L-glufosinate ammonium and quizalofop-ethyl to control weedy Glycine max.\nThe percentage efficacy was calculated after 3, 28 and 35 days of applications (DAA). The target weed was Glycine max, and the concentration of the herbicide and the results are recorded in Table 2.\nExperiments were conducted to assess the efficacy of the herbicidal combination comprising L-glufosinate ammonium and quizalofop-p-tefuryl to control the weedy Glycine max\nThe percentage efficacy was calculated after 3, 28 and 35 days of applications (DAA). The target weed was weedy Glycine max, and the concentration of the herbicide and the results are recorded in Table 3.",
  "data": [
    {"molecule": "CP(=O)(O)CC[C@H](N)C(=O)O.N", "note": "[L-glufosinate ammonium]", "values": [
      {"measurement": "Observed efficacy (%) of L-glufosinate ammonium (150 g a.i./ha)", "setting": "Example 1 (Table 2), 3 DAA", "result": 50, "unit": "%"},
      {"measurement": "Observed efficacy (%) of L-glufosinate ammonium (150 g a.i./ha)", "setting": "Example 1 (Table 2), 28 DAA", "result": 40, "unit": "%"},
      {"measurement": "Observed efficacy (%) of L-glufosinate ammonium (150 g a.i./ha)", "setting": "Example 1 (Table 2), 35 DAA", "result": 40, "unit": "%"},
      {"measurement": "Observed efficacy (%) of L-glufosinate ammonium (150 g a.i./ha)", "setting": "Example 2 (Table 3), 3 DAA", "result": 50, "unit": "%"},
      {"measurement": "Observed efficacy (%) of L-glufosinate ammonium (150 g a.i./ha)", "setting": "Example 2 (Table 3), 28 DAA", "result": 60, "unit": "%"},
      {"measurement": "Observed efficacy (%) of L-glufosinate ammonium (150 g a.i./ha)", "setting": "Example 2 (Table 3), 35 DAA", "result": 55, "unit": "%"}
    ]},
    {"molecule": "CCOC(=O)C(C)Oc1ccc(Oc2cnc3cc(Cl)ccc3n2)cc1", "note": "(stereo not drawn) [quizalofop-ethyl, Quizalofop-ethyl]", "values": [
      {"measurement": "Observed efficacy (%) of quizalofop-ethyl (25 g a.i./ha)", "setting": "Example 1 (Table 2), 3 DAA", "result": 0, "unit": "%"},
      {"measurement": "Observed efficacy (%) of quizalofop-ethyl (25 g a.i./ha)", "setting": "Example 1 (Table 2), 28 DAA", "result": 0, "unit": "%"},
      {"measurement": "Observed efficacy (%) of quizalofop-ethyl (25 g a.i./ha)", "setting": "Example 1 (Table 2), 35 DAA", "result": 0, "unit": "%"}
    ]},
    {"molecule": "C[C@@H](Oc1ccc(Oc2cnc3cc(Cl)ccc3n2)cc1)C(=O)OCC1CCCO1", "note": "(stereo partly drawn) [quizalofop-p-tefuryl, Quizalofop-p-tefuryl]", "values": [
      {"measurement": "Observed efficacy (%) of quizalofop-p-tefuryl (25 g a.i./ha)", "setting": "Example 2 (Table 3), 3 DAA", "result": 0, "unit": "%"},
      {"measurement": "Observed efficacy (%) of quizalofop-p-tefuryl (25 g a.i./ha)", "setting": "Example 2 (Table 3), 28 DAA", "result": 0, "unit": "%"},
      {"measurement": "Observed efficacy (%) of quizalofop-p-tefuryl (25 g a.i./ha)", "setting": "Example 2 (Table 3), 35 DAA", "result": 0, "unit": "%"}
    ]}
  ]
}
